Experimental data from paper PMC11251039, “Harnessing cholesterol uptake of malaria parasites for therapeutic applications” (EMBO Molecular Medicine, 2024).
pIC50: −log10 of the molar value. Several values for one entry are separate records, joined by “and”; a condition that tells them apart may be missing. Identical values can stand only once. Like-named read-outs stand apart in the source and are kept apart here.

Key:
[1] = test system: asexual P. falciparum 3D7 wild-type parasites; test: P. falciparum asexual growth inhibition assay (SYBR Safe DNA replication); type: cell-based, Plasmodium falciparum; details: for P. falciparum asexual growth, percentage of control: replicate values, source data Fig. 2B, listed as BC5B; for IC90 / pIC50: Plasmodium falciparum; for pIC50: read-out: IC50, P. falciparum asexual growth inhibition
Method in brief: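 Sorbitol-synchronised ring-stage cultures at 1% parasitaemia and 1% haematocrit were exposed to 2-fold compound dilutions at 37 °C under microaerophilic conditions for 24, 48 or 72 h. Growth was read by SYBR Safe fluorescence of freeze-thaw lysates, with 200 nM chloroquine or artesunate defining background.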

[2] = test system: Toxoplasma gondii tachyzoites (RH strain); test: Toxoplasma growth inhibition assay (tdTomato fluorescence, in HFF cells); type: cell-based; details: 72 h
Procedure: Fluorescence was measured daily with a fluorescence microplate reader for one week, and the background fluorescence from the time 0 reading was subtracted from all other measurements. […]
Toxoplasma Growth Inhibition Assays:
Growth inhibition was investigated as described previously (26). Fluorescent Toxoplasma gondii parasites were inoculated into an optical bottom 96-well plate containing confluent human foreskin fibroblast (HFF) host cells at a density of 2,000 parasites/well, with a serial dilution of each compound, or culture media/DMSO (0.1% v/v) alone. Plates were measured daily with a FluoStar Optima fluorescence plate reader at 540 nm excitation and 590 nm emission for one week, and the background fluorescence from the time 0 reading was subtracted from all other measurements. […]

[3] = test system: human embryonic kidney cells (HEK293); test: Human embryonic kidney cell viability assay (MTT); type: cell-based; details: Homo sapiens; 96 h, HEK293; read-out: IC50, human embryonic kidney cell inhibition (viability)
Procedure: HEK293 cell viability assays commenced with 5000 cells per well. 10 µg/mL cycloheximide was used as a no-growth control. Metabolic capacity (indicating viability) was measured in an absorbance microplate reader after incubation with 0.45 mg/mL methylthiazolyldiphenyl-tetrazolium bromide (MTT; Sigma M2128) for 2 h followed by crystal solubilisation in SDS. […]
Human Embryonic Kidney Cell Viability Assays:
Human Embryonic Kidney Cell (HEK293) culture:
The HEK293 cell line was maintained under routine culture conditions in DMEM containing 3.7 g/L NaHCO3 supplemented with 10% FBS, 200 μM glutamine, 100 units/mL penicillin, and 100 μg/mL streptomycin at 37 °C in a humidified 5% CO2 incubator.
Cells were detached from a flask using 0.25% Trypsin with 0.2 g/L EDTA (Sigma T4049) and washed with culture media containing no phenol red. Cells were incubated with a serial dilution of each compound, or media/DMSO alone. The protein synthesis inhibitor cycloheximide (Sigma 01810) at 10 µg/mL was used as a positive control to determine background absorbance. 5,000 cells were seeded in each well. After 96 hours, 0.45 mg/mL methylthiazolyldiphenyl-tetrazolium bromide (MTT; Sigma M2128) was added and incubated for a further two hours, before mixing 1.1:1 with 10% w/v sodium dodecyl sulfate (SDS) to solubilise crystals and freezing the plate at -18 °C to stop the assay. […]

[4] = test system: P. berghei liver stages; test: Plasmodium berghei liver stage growth inhibition assay (luminescence, in Huh7 cells); details: for P. berghei liver stage growth, dose-response data points (Figure 3A): replicate data points; for P. berghei liver stage growth, dose-response data points (Figure 3A) / Figure 3E dose-response value (replicates): listed as BC5B
Procedure: Growth inhibition or cell viability were assessed by incubation with a serial dilution of test compounds, solvent controls (DMSO, ethanol, ethyl acetate), or culture media alone in 96-well plates, with detection of fluorescence, luminescence, or absorbance in microplate readers after 24–96 h unless otherwise specified.
Huh7 cells were seeded at a density of 10,000 cells per well of a 96-well plate, or 20,000 cells per collagen-coated coverslip. After 24 h, test compounds were added the wells were inoculated with P. berghei liver stage sporozoites dissected from infected A. stephensi salivary glands with 5000–10,000 sporozoites per well or 10,000–20,000 sporozoites per coverslip. Uninfected wells served as a control for background luminescence. Luminescence signal was measured 48 h post-invasion by addition of 1:1 ONE-Glo^TM substrate (Promega) with a luminescence microplate reader. Coverslips were fixed, stained, and imaged, with all parasites on each coverslip imaged and delineated as described (Petersen et al, [2017]) using Fiji ImageJ (Schindelin et al, [2012]). Data are presented as a percentage of the size or parasite number of the solvent control to normalize for differences between experiments.
Growth inhibition data were normalised by subtracting background fluorescence, luminescence, absorbance, or percentage of cells from a no-growth or no-viability control (high drug concentration, no-parasite control, or time = 0 measurement as specified), and expressed as a percentage of the growth or cell percentage in the negative control (culture media alone or solvent control) at the indicated timepoint (or to the highest measurement reached during the assay for Fig. EV3).
Plasmodium berghei ANKA Bergreen (22) or GFP-Luc (RMgm-29) (23), respectively
expressing green fluorescent protein (GFP) or a GFP-Luciferase fusion protein, were
maintained under routine conditions in SWR/J Mus musculus mice and Anopheles stephensi
Growth inhibition of P. berghei liver-stages was investigated after infection of human
hepatoma cells (Huh7) and subsequent growth for 48 hours at 37° C, 5% CO2 and 80%
humidity. The day prior to infection, 10,000 Huh7 cells were seeded in dark-sided 96-well
microplates (Greiner Bio One). On the day of infection, compounds or solvent controls
(DMSO) were serially diluted in culture media and 5,000 – 10,000 Bergreen or GFP-Luc
sporozoites were added per well following dissection from infected A. stephensi salivary
glands. Uninfected wells served as control for background luminescence. To promote invasion,
the plates were centrifuged at 1,550 g for 5 minutes. After 60 minutes, the media was
completely replaced with fresh, prewarmed media with the matching drug concentrations.
Media was partially replaced with new drug dilutions over the following two days. 48 hours
post-infection, luminescence signal was measured by addition of 1:1 ONE-GloTM substrate
(Promega) to the wells, followed by detection at 300 – 700 nm using a Synergy HTX plate

COc1cc(NC(C)CCCNC(=O)CCC(=O)O[C@H]2CC[C@H]3[C@@H]4CC=C5C[C@@H](O)CC[C@]5(C)[C@H]4CC[C@]23C)c2ncccc2c1 (stereo partly shown) [C-17-PQ]
Fold lower IC50 than primaquine alone [1]: ~ 4 fold
P. falciparum asexual growth, percentage of control ([1]; 0.154296880 uM, 24 h): 115.9% and 112.2% and 101.3% and 107.1% and 95.84% and 88.53% and 98.99% and 116.6% and 76.11%
P. falciparum asexual growth, percentage of control ([1]; 0.308593750 uM, 24 h): 125.5% and 115.5% and 91.68% and 117.9% and 88.81% and 84.79% and 114.9% and 109.1% and 95.02%
P. falciparum asexual growth, percentage of control ([1]; 0.617187500 uM, 24 h): 131.7% and 113.6% and 103% and 85.01% and 97.93% and 83.36% and 109% and 162.3% and 97.26%
P. falciparum asexual growth, percentage of control ([1]; 1.234375000 uM, 24 h): 120.1% and 114.6% and 99.7% and 107.3% and 77.37% and 93.38% and 101.7% and 96.22% and 102.4%
P. falciparum asexual growth, percentage of control ([1]; 2.468750000 uM, 24 h): 89.52% and 83.68% and 69.39% and 87.34% and 56.13% and 47.54% and 76.36% and 68.29% and 79.29%
P. falciparum asexual growth, percentage of control ([1]; 4.937500000 uM, 24 h): 14.72% and 24.05% and 6.418% and 5.536% and -2.79% and -3.361% and 18.05% and 30.2% and 18.39%
P. falciparum asexual growth, percentage of control ([1]; 9.875000000 uM, 24 h): 13.15% and 2.413% and -18.71% and -3.317% and -20.54% and -27.66% and -1.156% and -7.164% and -20.57%
P. falciparum asexual growth, percentage of control ([1]; 19.750000000 uM, 24 h): -9.926% and -19.32% and -11.56% and 3.097% and -3.493% and -18.72% and 17.43% and -16.64% and -32.93%
Fold difference in IC90 to primaquine ([1]; 24 h): ~ 8 fold
Hill slope of inhibitory curve ([1]; 24 h): −4.56
Hill slope of inhibitory curve ([1]; 72 h): −4.20
IC90 ([1]; 3D7, 24 h): 5000 nM
pIC50 ([1]; 3D7, 24 h, 24 h, starting at ring stages): 5.51
pIC50 ([1]; 3D7, 48 h, 48 h): 5.52
IC90 ([1]; 3D7, 72 h): 4000 nM
pIC50 ([1]; 3D7, 72 h, 72 h): 5.62
Fold difference in IC50 to primaquine ([2]; listed as steroid-primaquine conjugate): ~ 3.5 fold and 3 fold
pIC50 ([2]; Toxoplasma gondii, HFF, read-out: IC50, T. gondii tachyzoite growth inhibition): 5.55
pIC50 [3]: < 4.30
P. berghei liver stage growth, dose-response data points (Figure 3A) ([4]; 0.015241580 uM): 99.66 and 97.59 and 102.8 and 91.81 and 95.85 and 112.3 and 109.1 and 88.24 and 102.7
P. berghei liver stage growth, dose-response data points (Figure 3A) ([4]; 0.045724740 uM): 109 and 90.36 and 103.8 and 84.25 and 83.27 and 86.47 and 94.66 and 88.64 and 73.11
P. berghei liver stage growth, dose-response data points (Figure 3A) ([4]; 0.137174210 uM): 94.49 and 73.84 and 68.67 and 79.23 and 76.1 and 53.42 and 81.73 and 93.15 and 81.23
Figure 3E dose-response value (replicates) ([4]; 0.145312500 uM): 100.6 and 88.31 and 76.37 and 94.25
Figure 3E dose-response value (replicates) ([4]; 0.290625000 uM): 94.35 and 94.79 and 85.61 and 89.45 and 87.37 and 88.47 and 84.93 and 94.4 and 94.85 and 93.84 and 89.47 and 91.21
P. berghei liver stage growth, dose-response data points (Figure 3A) ([4]; 0.411522630 uM): 13.94 and 18.07 and 25.3 and 9.363 and 14.77 and 12.23 and 25.32 and 28.82 and 21.11
Figure 3E dose-response value (replicates) ([4]; 0.581250000 uM): 102.2 and 80.25 and 95.76 and 90.1 and 83.44 and 75.35 and 88.55 and 97.11 and 92.72 and 86.07 and 93.7 and 93.03
Figure 3E dose-response value (replicates) ([4]; 1.162500000 uM): 80.19 and 74.87 and 75.85 and 88.24 and 81.26 and 89.14 and 75.39 and 78.14 and 86.59 and 91.1 and 86.79 and 86.51
P. berghei liver stage growth, dose-response data points (Figure 3A) ([4]; 1.234567900 uM): 1.549 (2×) and -1.549 and 0.4997 and 0.5648 and 2.455 and 1.57 and 4.175 and 3.674
Figure 3E dose-response value (replicates) ([4]; 2.325000000 uM): 53.31 and 45.1 and 53.66 and 84.74 and 82.81 and 85.04 and 49.27 and 57.96 and 49.51 and 76.01 and 76.49 and 71.94
P. berghei liver stage growth, dose-response data points (Figure 3A) ([4]; 3.703703700 uM): -1.549 and -0.5164 and -3.614 and 0.04345 and -0.02173 and 0.1086 and 0.3674 and 0.5678 and 1.47
Figure 3E dose-response value (replicates) ([4]; 4.650000000 uM): 7.681 and 6.67 and 6.188 and 47.84 and 67.52 and 65.25 and 8.114 and 8.015 and 9.768 and 28.34 and 27.7 and 22
Figure 3E dose-response value (replicates) ([4]; 9.300000000 uM): 1.871 and 0.7826 and 2.182 and 4.713 and 13.07 and 10.27 and 2.653 and 3.064 and 2.474 and 6.135 and 6.853 and 6.628
P. berghei liver stage growth, dose-response data points (Figure 3A) ([4]; 11.111111100 uM): -2.582 (2×) and -3.614 and -0.0869 and 0.1086 and 0.4997 and 0.5678 and 0.4676 and 0.7682
Figure 3E dose-response value (replicates) ([4]; 18.600000000 uM): 1.555 and 0.8085 and 1.399 and 1.289 and 0.3453 and 0.9092 and 0.9717 and 1.016 and 1.705 and 1.904 and 2.379 and 2.285
P. berghei liver stage growth, dose-response data points (Figure 3A) ([4]; 33.333333300 uM): -2.582 and -1.549 and -0.5164 and -0.02173 and 0.3041 (2×) and 0.3674 (2×) and 0.9686
Figure 3E dose-response value (replicates) ([4]; 37.200000000 uM): 2.576 and 1.923 and 1.736 and -0.9169 and -0.5313 and 0.3203 and 0.31 and 1.213 and 0.6856 and 1.324 and 1.043 and 1.236
P. berghei liver stage growth, dose-response data points (Figure 3A) ([4]; 100.000000000 uM): 0.5164 and -1.549 and 1.549 and 0.04345 and 0.4997 and 0.1086 and 0.5678 (2×) and 0.668
Fold reduction in IC50 compared to primaquine alone ([4]; 48 h): ~ 15 fold
pIC50 ([4]; Plasmodium berghei, Huh-7, 48 h, read-out: IC50, P. berghei liver stage growth inhibition): 6.70
